According to US10363239B2, “Method for inhibiting growth of cancer cells” (Pain Therapeutics, Inc., priority 2013, dated 2019):

Tests used:
[1] = tested on: MiaPaCa2 cells; assay: Cell proliferation by cell-cycling markers Ki67 and PCNA (Western blots); assay type: cell-based, human; conditions: 0.1-5 nM; 4 days
Protocol: The effect of contact with Compound C0105 on cell proliferation was determined by the levels of cell-cycling markers Ki67 and PCNA using Western blots. Cells treated with vehicle and 0.1-5 nM C0105 for 4 days were collected, washed and solubilized (lysed). The resultant cell lysates were size-fractionated on SDS-PAGE and Western blotting to determine the levels of Ki67, PCNA and actin (loading control). The protein bands were quantified using densitometric scanning. […] N=4. *p<0.01 compared to vehicle (open bars).
To study the effect of Compound C0105 on PI3K activity, the cancer and primary normal cells were cultured to approximately 60-70% confluency, serum deprived for 4 hours, briefly washed with PBS and treated with vehicle or 0.1, 0.5, 1 or 5 nM Compound C0105 for 24 hours with in 0.1% FBS-containing culture medium. […] The cell pellets were sonicated in ice-cold immunoprecipitation buffer and protein concentrations measured by the Bradford method. […]
Immunoreactivity was visualized by reaction in ECL Plus chemiluminescent reagent for exactly 5 minutes, followed by immediate exposure of the blot to X-ray film (Z & Z Medical). Bands at the relevant molecular masses of Ki67 and PCNA were quantified by densitometric scan. Membranes were stripped, washed 5× in 0.1% PBST (2 minutes each) and the actin content analyzed by immunoblotting using monoclonal anti-actin to illustrate even loading.

[2] = tested on: glioblastoma (U-87MG) cells; assay: as above; assay type: cell-based, human; conditions: 0.1-5 nM; 4 days
Protocol: The effect of contact with Compound C0105 on cell proliferation was determined by the levels of cell-cycling markers: Ki67 and PCNA using Western blots in glioblastoma (U-87MG) cells. Cells contacted with vehicle and 0.1-5 nM Compound C0105 for 4 days were collected, washed and solubilized. The resultant cell lysates were size-fractionated on SDS-PAGE and Western blotting to determine the levels of Ki67, PCNA and actin (loading control). The protein bands were quantified using densitometric scanning. […] N=4. *p<0.01 compared to vehicle (open bars).
(§1) To study the effect of Compound C0105 on PI3K activity, the cancer and primary normal cells were cultured to approximately 60-70% confluency, serum deprived for 4 hours, briefly washed with PBS and treated with vehicle or 0.1, 0.5, 1 or 5 nM Compound C0105 for 24 hours with in 0.1% FBS-containing culture medium. The cells were then washed with PBS, scraped off and collected by centrifugation. The cell pellets were sonicated in ice-cold immunoprecipitation buffer and protein concentrations measured by the Bradford method. […]
(§2) Immunoreactivity was visualized by reaction in ECL Plus chemiluminescent reagent for exactly 5 minutes, followed by immediate exposure of the blot to X-ray film (Z & Z Medical). Bands at the relevant molecular masses of Ki67 and PCNA were quantified by densitometric scan. […]

[3] = tested on: more than 65 receptors; assay: Standard binding assay on more than 65 receptors; conditions: 10 μM concentration
[4] = tested on: small-cell lung carcinoma cells; assay: Cell proliferation by cell-cycling markers Ki67 and PCNA (Western blots); assay type: cell-based, human; conditions: 0.1-5 nM; 4 days
[5] = tested on: melanoma cells; assay: as above; assay type: cell-based, human; conditions: 0.1-5 nM; 4 days
Protocol: The effect of contact with Compound C0105 on cell proliferation was determined by the levels of cell-cycling markers: Ki67 and PCNA (proliferating cell nuclear antigen) using Western blots in human melanoma cells. Cells treated with vehicle and 0.1-5 nM C0105 for 4 days were collected, washed and solubilized (lysed). The resultant cell lysates were size-fractionated on SDS-PAGE and Western blotting to determine the levels of Ki67, PCNA and actin (loading control). The protein bands were quantified using densitometric scanning. […] N=4. *p<0.01 compared to vehicle (open bars).
as §1, §2

[6] = tested on: melanoma cells; assay: Glucose deprivation-induced cell death (cell density); assay type: cell-based, human; conditions: 0.1 or 1 nM; up to 4 days
Protocol: (§3) The effect of Compound C0105 on cell death induced by glucose withdrawal was assessed in glioblastoma and melanoma cells. Cells were grown to >90% confluence, washed and incubated in 0.1% fetal bovine serum (FBS) for 16 hours and incubated in glucose-free 0.1% FBS-containing medium without or with 0.1 or 1 nM C0105 for up to 4 days. Cell density was assessed at the indicated time point. Data are expressed as mean±S.E.M. of percentage change in cell density compared to cells grown in glucose- and 0.1% FBS-containing medium. […] N=5-6.
(§4) In a separate series of studies, the effect of Compound C0105 on glucose dependence was assessed by changes in cell density. The cancer and primary normal cells were grown to >90% confluency. The cells were washed with PBS, incubated in 0.1% fetal bovine serum (FBS) for 16 hours and incubated in glucose-free 0.1% FBS-containing medium for up to 4 days in the presence of vehicle or 1 nM Compound C0105.

[7] = tested on: glioblastoma cells; assay: as above; assay type: cell-based, human; conditions: 0.1 or 1 nM; up to 4 days
Protocol: as §3, §4

[8] = tested on: metastatic (liver) neuroendocrine tumor cells; assay: Cell proliferation by Ki67 and PCNA (Western blotting); assay type: cell-based, human; conditions: 1 nM; 4 days
[9] = tested on: small-cell lung carcinoma cells; assay: Glucose deprivation-induced apoptosis markers (cleaved PARP-1, caspase-3) by Western blotting; assay type: cell-based, human; conditions: 1 nM; Day 3 and 4
Protocol: . Cells were washed, solubilized and the levels of apoptotic markers PARP-1 and caspase-3 (19- and 17-KDa) in the obtained cell lysates were determined by Western blotting. The density of protein bands was quantified by densitometric scanning. […] . […] N=5. *p<0.01 compared to Day 0. #p<0.01 compared to vehicle (open bars).
. The cells were washed with PBS, incubated in 0.1% fetal bovine serum (FBS) for 16 hours and incubated in glucose-free 0.1% FBS-containing medium for up to 4 days in the presence of vehicle or 1 nM Compound C0105. The cells in the entire well were collected by centrifugation. […] The protein concentrations were measured by the Bradford method.
The cells were homogenized and the obtained homogenates were centrifuged to remove nucleus and mitochondria. […] The level of apoptotic cell death was determined using Western blotting in 50 μg solubilized cell lysates with antibodies against cleaved PARP-1 (Asp^214) and caspase-3 (Asp^175), both at 1:1000 dilution. […] Bands at the relevant molecular masses of Ki67 and PCNA were quantified by densitometric scan. Membranes were stripped, washed 5× in 0.1% PBST (2 minutes each wash) and the actin content analyzed by immunoblotting using monoclonal anti-actin to illustrate even loading.

Q: For CN1CCC2(CC1)NCC(=O)N2Cc1ccccc1 [Compound C0105], which “Cell proliferation (Ki67 and PCNA levels)” value (from here on “Cell proliferation”) [1] is on record?
A: reduces cell proliferation

Q: What about the “Cell proliferation” value [2] of the same compound?
A: reduces cell proliferation

Q: And the “Binding to any of more than 65 assayed receptors” value [3]?
A: no significant binding

Q: What about the “Cell proliferation” value [4] of the same compound?
A: reduces cell proliferation

Q: And the “Cell proliferation” value [5]?
A: reduces cell proliferation

Q: What about the “Cell death during glucose withdrawal” value [6] of the same compound?
A: reduced the amount of cell death

Q: And the “Cell death during glucose withdrawal” value [7]?
A: reduced the amount of cell death

Q: What about the “Cell proliferation” value [8] of the same compound?
A: Inhibits Proliferation

Q: And the “Glucose deprivation-induced cell death by cleaved PARP-1 and caspase-3” value [9]?
A: reduces glucose deprivation-induced cell death
